Values quoted from earlier work as cited in patent US6355677B1, “Adrenoleukodystrophy treatments and drug screening” (The Johns Hopkins University, priority 1998, dated 2002).

Experiments:
[1] = active ingredient of Lorenzo oil; cited from earlier work
[2] = in rats; cited from earlier work

SMILES	Brain entry [1]	Blood-brain barrier passage [2]
CCCCCCCC/C=C\CCCCCCCCCCCC(=O)O [erucic acid]	does not get into the brain	
O=C(O)Cc1ccccc1 [phenylacetate]		can cross the blood-brain barrier
